# Measured values published in patent US20260347364A1, “PYRAZOLO[4,3-F]QUINAZOLINE DERIVATIVES AS MODULATORS OF G12D MUTANT KRAS USEFUL FOR THE TREATMENT OF CANCER” (JAZZ PHARMACEUTICALS IRELAND LTD., priority 2023, published 2026).
# Key:
# KRAS G12D = target: T1, KRAS G12D (Homo sapiens, UniProt P01116, G12D); assay: HTRF nucleotide exchange assay, KRAS G12D; assay type: biochemical; conditions: class symbols; for IC50: HTRF nucleotide exchange assay (NEA)
# T1 construct: aa1-188 KRAS WT, HRAS WT, NRAS WT, or KRAS containing the G12D
# KRAS WT = target: T2, KRAS WT (Homo sapiens, UniProt P01116); assay: HTRF nucleotide exchange assay, KRAS WT; assay type: biochemical; conditions: class symbols; for IC50: HTRF nucleotide exchange assay (NEA)
# T2 construct: aa1-188 KRAS WT
SMILES,IC50 (KRAS G12D),IC50 (KRAS WT),KRAS^WT NEA (KRAS WT),KRAS^G12D NEA (KRAS G12D)
"C#Cc1c(F)ccc2cc(O)cc(-c3cc4nc(OC[C@@]56CCCN5C[C@H](F)C6)nc(N5CCCC(C)(O)C5)c4c4cn(C)nc34)c12 (stereo partly drawn) [Example 33, 1-[4-(8-ethynyl-7-fluoro-3-hydroxy-1-naphthyl)-2-methyl-7-[[(2R,8S)-2-fluoro-1,2,3,5,6,7-hexahydropyrrolizin-8-yl]methoxy]pyrazolo[4,3-f]quinazolin-9-yl]-3-methyl-piperidin-3-ol]",10 to 100 nM,10 to 100 nM,–,–
"CCc1c(F)ccc2cc(O)cc(-c3c(F)c4nc(OC[C@@]56CCCN5C[C@H](F)C6)nc(N5CCCn6nc(C(=O)N7CCCC7)cc6C5)c4c4cn(C)nc34)c12 [Example 197, [5-[4-(8-ethyl-7-fluoro-3-hydroxy-1-naphthyl)-5-fluoro-7-[[(2R,8S)-2-fluoro-1,2,3,5,6,7-hexahydropyrrolizin-8-yl]methoxy]-2-methyl-pyrazolo[4,3-f]quinazolin-9-yl]-4,6,7,8-tetrahydropyrazolo[1,5-a][1,4]diazepin-2-yl]-pyrrolidin-1-yl-methanone]",≤ 10 nM,≤ 10 nM,–,–
"CCc1c(F)ccc2cc(O)cc(-c3cc4nc(OC[C@@]56CCCN5C[C@H](F)C6)nc(N5CCOC[C@@](C)(O)C5)c4c4cn(C)nc34)c12 [Example 40, (6S)-4-[4-(8-ethyl-7-fluoro-3-hydroxy-1-naphthyl)-2-methyl-7-[[(2R,8S)-2-fluoro-1,2,3,5,6,7-hexahydropyrrolizin-8-yl]methoxy]pyrazolo[4,3-f]quinazolin-9-yl]-6-methyl-1,4-oxazepan-6-ol]",≤ 10 nM,≤ 10 nM,–,–
Cn1cc2c(n1)c(-c1cc(O)cc3ccc(F)c(F)c13)cc1nc(OC[C@@]34CCCN3C[C@H](F)C4)nc(N3CCCOCC3)c12 [Example 39],10 to 100 nM,10 to 100 nM,–,–
"CCc1c(F)ccc2cc(O)cc(-c3cc4nc(OC[C@@]56CCCN5C[C@H](F)C6)nc(N5CCC(CO)C5)c4c4cn(C)nc34)c12 (stereo partly drawn) [Example 122, 5-ethyl-6-fluoro-4-[9-[3-(hydroxymethyl)pyrrolidin-1-yl]-2-methyl-7-[[(2R,8S)-2-fluoro-1,2,3,5,6,7-hexahydropyrrolizin-8-yl]methoxy]pyrazolo[4,3-f]quinazolin-4-yl]naphthalen-2-ol]",≤ 10 nM,≤ 10 nM,–,–
"CCc1c(F)ccc2cc(O)cc(-c3c(C)c4nc(OC[C@@]56CCCN5C[C@H](F)C6)nc(N5CCCn6nc(C(=O)N7CCCC7)cc6C5)c4c4cn(C)nc34)c12 [Example 182, [5-[4-(8-ethyl-7-fluoro-3-hydroxy-1-naphthyl)-7-[[(2R,8S)-2-fluoro-1,2,3,5,6,7-hexahydropyrrolizin-8-yl]methoxy]-2,5-dimethyl-pyrazolo[4,3-f]quinazolin-9-yl]-4,6,7,8-tetrahydropyrazolo[1,5-a][1,4]diazepin-2-yl]-pyrrolidin-1-yl-methanone]",≤ 10 nM,≤ 10 nM,–,–
"CCc1c(F)ccc2cc(O)cc(-c3c(C)c4nc(OC[C@]5(C)CCCN5)nc(N5CCC[C@@](C)(O)C5)c4c4cn(C)nc34)c12 (mixture of isomers) [Example 211, (3R)-1-[4-(8-ethyl-7-fluoro-3-hydroxy-1-naphthyl)-2,5-dimethyl-7-[[rac-(2S)-2-methylpyrrolidin-2-yl]methoxy]pyrazolo[4,3-f]quinazolin-9-yl]-3-methyl-piperidin-3-ol]",≤ 10 nM,≤ 10 nM,–,–
"CCc1c(F)ccc2cc(O)cc(-c3c(F)c4nc(OCC5(CN6CC[C@@H](O)C6)CC5)nc(N5CCOCC(C)(O)C5)c4c4cn(C)nc34)c12 (stereo partly drawn) [Example 194, 4-[4-(8-ethyl-7-fluoro-3-hydroxy-1-naphthyl)-5-fluoro-2-methyl-7-[[1-[[(3R)-3-hydroxypyrrolidin-1-yl]methyl]cyclopropyl]methoxy]pyrazolo[4,3-f]quinazolin-9-yl]-6-methyl-1,4-oxazepan-6-ol]",≤ 10 nM,≤ 10 nM,–,–
"CCc1c(F)ccc2cc(O)cc(-c3c(F)c4nc(OCC5(CN6CC[C@H](F)C6)CC5)nc(N5CCOCC(C)(O)C5)c4c4cn(C)nc34)c12 (stereo partly drawn) [Example 231, 4-[4-(8-ethyl-7-fluoro-3-hydroxy-1-naphthyl)-5-fluoro-2-methyl-7-[[1-[[(3S)-3-fluoropyrrolidin-1-yl]methyl]cyclopropyl]methoxy]pyrazolo[4,3-f]quinazolin-9-yl]-6-methyl-1,4-oxazepan-6-ol]",≤ 10 nM,≤ 10 nM,–,–
"CCc1c(F)ccc2cc(O)cc(-c3cc4nc(OC[C@@]56CCCN5C[C@H](F)C6)nc(N5CCCC6(CCC(O)C6)C5)c4c4cn(C)nc34)c12 (stereo partly drawn) [Example 200, 7-[4-(8-ethyl-7-fluoro-3-hydroxy-1-naphthyl)-2-methyl-7-[[(2R,8S)-2-fluoro-1,2,3,5,6,7-hexahydropyrrolizin-8-yl]methoxy]pyrazolo[4,3-f]quinazolin-9-yl]-7-azaspiro[4.5]decan-3-ol]",100 to 10000 nM,100 to 10000 nM,–,–
"CCc1c(F)ccc2cc(O)cc(-c3c(F)c4nc(OC[C@@H]5CCCN5C)nc(N5CCOCC(C)(O)C5)c4c4cn(C)nc34)c12 (stereo partly drawn) [Example 154, 4-[4-(8-ethyl-7-fluoro-3-hydroxy-1-naphthyl)-5-fluoro-2-methyl-7-[[(2S)-1-methylpyrrolidin-2-yl]methoxy]pyrazolo[4,3-f]quinazolin-9-yl]-6-methyl-1,4-oxazepan-6-ol]",≤ 10 nM,≤ 10 nM,–,–
"CCc1c(F)ccc2cc(O)cc(-c3c(F)c4nc(OC[C@@]56CCCN5C[C@H](F)C6)nc(N5CCCn6nc(C(=O)N(C)C)cc6C5)c4c4cn(C)nc34)c12 [Example 87, 5-[4-(8-ethyl-7-fluoro-3-hydroxy-1-naphthyl)-5-fluoro-2-methyl-7-[[(2R,8S)-2-fluoro-1,2,3,5,6,7-hexahydropyrrolizin-8-yl]methoxy]pyrazolo[4,3-f]quinazolin-9-yl]-N,N-dimethyl-4,6,7,8-tetrahydropyrazolo[1,5-a][1,4]diazepine-2-carboxamide]",≤ 10 nM,≤ 10 nM,–,–
"CCc1c(F)ccc2cc(O)cc(-c3cc4nc(OC[C@@]56CCCN5C[C@H](F)C6)nc(N5CCOC6(COC6)C5)c4c4cn(C)nc34)c12 [Example 199, 4-[9-(2,5-dioxa-8-azaspiro[3.5]nonan-8-yl)-2-methyl-7-[[(2R,8S)-2-fluoro-1,2,3,5,6,7-hexahydropyrrolizin-8-yl]methoxy]pyrazolo[4,3-f]quinazolin-4-yl]-5-ethyl-6-fluoro-naphthalen-2-ol]",10 to 100 nM,10 to 100 nM,–,–
"CCc1c(F)ccc2cc(O)cc(-c3c(F)c4nc(OC[C@@]56CCCN5C[C@H](F)C6)nc(N5CCC(O)CC5)c4c4cn(C)nc34)c12 [Example 177, 1-[4-(8-ethyl-7-fluoro-3-hydroxy-1-naphthyl)-5-fluoro-2-methyl-7-[[(2R,8S)-2-fluoro-1,2,3,5,6,7-hexahydropyrrolizin-8-yl]methoxy]pyrazolo[4,3-f]quinazolin-9-yl]piperidin-4-ol]",≤ 10 nM,≤ 10 nM,–,–
"CCc1c(F)ccc2cc(O)cc(-c3c(F)c4nc(OCC5(CN6CC(C)OC(C)C6)CC5)nc(N5CCOCC(C)(O)C5)c4c4cn(C)nc34)c12 (stereo not shown) [Example 246, 4-[7-[[1-[(2,6-dimethylmorpholin-4-yl)methyl]cyclopropyl]methoxy]-4-(8-ethyl-7-fluoro-3-hydroxy-1-naphthyl)-5-fluoro-2-methyl-pyrazolo[4,3-f]quinazolin-9-yl]-6-methyl-1,4-oxazepan-6-ol]",≤ 10 nM,≤ 10 nM,–,–
"CCc1c(F)ccc2cc(O)cc(-c3c(F)c4nc(OCC5(CN(C)CC(F)(F)F)CC5)nc(N5CCOCC(C)(O)C5)c4c4cn(C)nc34)c12 (stereo not shown) [Example 192, 4-[4-(8-ethyl-7-fluoro-3-hydroxy-1-naphthyl)-5-fluoro-2-methyl-7-[[1-[[methyl(2,2,2-trifluoroethyl)amino]methyl]cyclopropyl]methoxy]pyrazolo[4,3-f]quinazolin-9-yl]-6-methyl-1,4-oxazepan-6-ol]",100 to 10000 nM,–,D (<49% inhibition at 10 μM),–
"CCc1c(F)ccc2cc(O)cc(-c3c(F)c4nc(OCC5(CF)COC5)nc(N5CCOCC(C)(O)C5)c4c4cn(C)nc34)c12 (stereo not shown) [Example 163, 4-[4-(8-ethyl-7-fluoro-3-hydroxy-1-naphthyl)-5-fluoro-7-[[3-(fluoromethyl)oxetan-3-yl]methoxy]-2-methyl-pyrazolo[4,3-f]quinazolin-9-yl]-6-methyl-1,4-oxazepan-6-ol]",≤ 10 nM,≤ 10 nM,–,–
"CN(C)C(=O)c1cc2n(n1)CCCN(c1nc(OC[C@@]34CCCN3C[C@H](F)C4)nc3cc(-c4cccc5[nH]nc(C#N)c45)c4nn(C)cc4c13)C2 [Example 83, 5-[4-(3-cyano-1H-indazol-4-yl)-2-methyl-7-[[(2R,8S)-2-fluoro-1,2,3,5,6,7-hexahydropyrrolizin-8-yl]methoxy]pyrazolo[4,3-f]quinazolin-9-yl]-N,N-dimethyl-4,6,7,8-tetrahydropyrazolo[1,5-a][1,4]diazepine-2-carboxamide]",–,–,D (<49% inhibition at 10 μM),D (<49% inhibition at 10 μM)
"CCc1c(F)ccc2cc(O)cc(-c3cc4nc(OC[C@@]56CCCN5C[C@H](F)C6)nc(N5CCC5C(C)(C)O)c4c4cn(C)nc34)c12 (stereo partly drawn) [Example 135, 5-ethyl-6-fluoro-4-[9-[2-(1-hydroxy-1-methyl-ethyl)azetidin-1-yl]-2-methyl-7-[[(2R,8S)-2-fluoro-1,2,3,5,6,7-hexahydropyrrolizin-8-yl]methoxy]pyrazolo[4,3-f]quinazolin-4-yl]naphthalen-2-ol]",100 to 10000 nM,10 to 100 nM,–,–
"CCc1c(F)ccc2cc(O)cc(-c3cc4nc(OC[C@@H]5C[C@H](C)CN5)nc(N5CCCn6nc(C(=O)N(C)C)cc6C5)c4c4cn(C)nc34)c12 [Example 49, 5-[4-(8-ethyl-7-fluoro-3-hydroxy-1-naphthyl)-2-methyl-7-[[(2S,4S)-4-methylpyrrolidin-2-yl]methoxy]pyrazolo[4,3-f]quinazolin-9-yl]-N,N-dimethyl-4,6,7,8-tetrahydropyrazolo[1,5-a][1,4]diazepine-2-carboxamide]",–,100 to 10000 nM,–,D (<49% inhibition at 10 μM)
